Reference: article PMC10574185, “Encapsulation and Biological Activity of Hesperetin Derivatives with HP-β-CD” (Molecules, 2023)
In brackets after ≈: the same amount, converted by molar mass. Where two headings read alike, the source gives them in different places.

Experiments:
[1] = Phase solubility studies with HP-β-CD; type: physicochemical; settings: for solubility at 60 min: thermodynamic from solid
Experimental: The purpose of this part of the study was to determine the solubility of compounds of hesperetin and its Schiff bases (HHSB, HIN, and HTSC) in aqueous solution at different pHs and temperatures, and the effect of their inclusion in modified HP-β-CD on the aqueous solubility of these compounds at different pH values.
The effect of the presence of HP-β-CD at different temperatures (25, 37, and 60 °C) was determined by developing phase solubility diagrams.
In accordance with the methodology described in Section 3.4, excess amounts of each tested substance were added to aqueous solution with increasing concentration of HP-β-CD up to 16 mM, respectively, in 2 mL of 100 mM sodium acetate buffer (pH 3.6), 100 mM sodium phosphate buffer (pH 6.5) or 100 mM sodium borate buffer (pH 8.5).
Phase solubility studies were conducted according to [64] with some modifications. Excess amounts of each tested substance were added to aqueous solution with increasing concentration of HP-β-CD up to 16 mM, in 2 mL of 100 mM sodium acetate buffer (pH 3.6), 100 mM sodium phosphate buffer (pH 6.5), or 100 mM sodium borate buffer (pH 8.5), respectively. The samples were maintained in an ultrasonic bath at various temperatures (25, 37, and 60 °C) for 60 min to reach equilibrium. The aqueous solutions were then filtered through 0.45 µm acetate cellulose (CA) membrane filter and diluted. The tested compound concentration on each clear filtrate was spectrophotometrically determined by measuring at their wavelength maximum.
The complexation constant (Kc) between studied molecules and HP-β-CD was determined by using Equation (1):(1) Kc=slope/S0 (1−slope) where S0 means the water solubility of the studied substance, and “slope” means the slope of the phase solubility diagram.
Complexation efficiency was calculated from the slope of the phase solubility diagram using Equation (2):(2) CE=S0×Kc=slope/1−slope
The CE was also applied to evaluate the molar ratio in solution of tested systems using Equation (3):(3) Compound:HP−β−CD=1:(1+1/CE)

[2] = test system: HaCaT cells; assay: MTT cytotoxicity assay on HaCaT keratinocytes; type: cell-based, human; settings: 48 h exposure
Experimental: HaCaT keratinocyte cells were exposed to chemical compounds at nine different concentrations (from 3.9 to 995.6 µg/mL) in four replicates of each concentration for 24 and 48 h.
All compounds were dissolved in sterile DMSO (Merck Life Science, Warsaw, Poland) and were sterile-filtered with 0.22 µm pore size sterile disposable syringe filters.
HaCaT cell line (the normal immortalised human keratinocytes) used in the study derived from the 35th passage (the original material created by Prof. Dr. Petra Boukamp and Dr. Norbert Fusenig) was purchased from Cell Line Service GmbH (Eppelheim, Germany). The cells were cultured and propagated as described previously.
The cytotoxicity was assessed with MTT assay according to methodology applied previously.
The following final concentrations (in four replicates per experiment) of the test compounds were tested (µg/mL): 3.9; 7.8; 15.6; 31.1; 62.2; 124.5; 248.9; 497.8, and 995.6. […] Three independent experiments were conducted. The vehicle was cells in the culture medium. The assay was conducted for 24 h and 48 h.

[3] = test system: Staphylococcus aureus ATCC 25923; assay: Minimal inhibition concentration (dilution + diffusion-well); type: cell-based; settings: ATCC25923, 37 °C, 18 h
Experimental: (§1) The MIC was performed for compounds and strains sensitive to their action in the antagonistic test. Minimum inhibitory concentration was determined by combining the dilution method with the diffusion-well method. Test compounds at a concentration of 500 μM were prepared in 5% (w/w) DMSO. Surface layer of microorganisms, against which antagonistic activity was noted, were prepared in the same way as for the antagonistic test. Then, two-fold sequential dilutions of the test compounds in the range of 500 µM to 62.5 µM were prepared. Wells with a diameter of 8 mm cut in the Mueller–Hinton Agar (Merck, Darmstadt, Germany) with the test strain were added with 50 µL of the prepared dilutions, which corresponded to the following concentrations of the tested compounds: […], 1.25 mM, 0.625 mM, and […]. Petri dishes prepared in this way were incubated at 37 °C for 18 h. After a given time, the MIC value was read. The MIC concentration expressed in µM was the first concentration of the tested compounds at which growth inhibition of the test strain was observed.

[4] = test system: Staphylococcus aureus ATCC 29737; assay: as above; type: cell-based; settings: ATCC29737, 37 °C, 18 h
Experimental: as §1

CE complexation efficiency ([1]; 25 °C, pH 3.6, with HP-β-CD): 0.07%
Kc complexation constant ([1]; 25 °C, pH 3.6, with HP-β-CD): 13 ± 2.9 M⁻¹
increase of solubility with HP-β-CD ([1]; 25 °C, pH 6.5, HP-β-CD at 16 mM): five-fold
CE complexation efficiency ([1]; 25 °C, pH 6.5, with HP-β-CD): 0.07%
Kc complexation constant ([1]; 25 °C, pH 6.5, with HP-β-CD): 11 ± 1.6 M⁻¹
CE complexation efficiency ([1]; 25 °C, pH 8.5, with HP-β-CD): 0.1%
Kc complexation constant ([1]; 25 °C, pH 8.5, with HP-β-CD): 12.5 ± 0.3 M⁻¹
CE complexation efficiency ([1]; 37 °C, pH 3.6, with HP-β-CD): 0.1%
Kc complexation constant ([1]; 37 °C, pH 3.6, with HP-β-CD): 16 ± 1.7 M⁻¹
CE complexation efficiency ([1]; 37 °C, pH 6.5, with HP-β-CD): 0.1%
Kc complexation constant ([1]; 37 °C, pH 6.5, with HP-β-CD): 16 ± 1.7 M⁻¹
CE complexation efficiency ([1]; 37 °C, pH 8.5, with HP-β-CD): 0.3%
Kc complexation constant ([1]; 37 °C, pH 8.5, with HP-β-CD): 18 ± 4.2 M⁻¹
increase of solubility with HP-β-CD ([1]; 60 °C, pH 3.6): five-fold
CE complexation efficiency ([1]; 60 °C, pH 3.6, with HP-β-CD): 0.5%
Kc complexation constant ([1]; 60 °C, pH 3.6, with HP-β-CD): 28 ± 0.3 M⁻¹
CE complexation efficiency ([1]; 60 °C, pH 6.5, with HP-β-CD): 0.04%
Kc complexation constant ([1]; 60 °C, pH 6.5, with HP-β-CD): 2.2 ± 0.6 M⁻¹
CE complexation efficiency ([1]; 60 °C, pH 8.5, with HP-β-CD): 0.1%
Kc complexation constant ([1]; 60 °C, pH 8.5, with HP-β-CD): 3.2 ± 0.6 M⁻¹
solubility at 60 min ([1]; aqueous buffer, 25 °C, pH 3.6 sodium acetate buffer, without cyclodextrin, read-out: solubility without HP-β-CD (value in brackets) (converted)): 17 µM (≈ 6.38 µg/mL)
solubility at 60 min ([1]; aqueous buffer, 25 °C, pH 6.5 sodium phosphate buffer, without cyclodextrin, read-out: solubility without HP-β-CD (value in brackets) (converted)): 11 µM (≈ 4.13 µg/mL)
solubility at 60 min ([1]; aqueous buffer, 25 °C, pH 8.5 sodium borate buffer, without cyclodextrin, read-out: solubility without HP-β-CD (value in brackets) (converted)): 20 µM (≈ 7.51 µg/mL)
solubility at 60 min ([1]; aqueous buffer, 37 °C, pH 3.6 sodium acetate buffer, without cyclodextrin, read-out: solubility without HP-β-CD (value in brackets) (converted)): 28 µM (≈ 10.5 µg/mL)
solubility at 60 min ([1]; aqueous buffer, 37 °C, pH 6.5 sodium phosphate buffer, without cyclodextrin, read-out: solubility without HP-β-CD (value in brackets) (converted)): 27 µM (≈ 10.1 µg/mL)
solubility at 60 min ([1]; aqueous buffer, 37 °C, pH 8.5 sodium borate buffer, without cyclodextrin, read-out: solubility without HP-β-CD (value in brackets) (converted)): 220 µM (≈ 82.6 µg/mL)
solubility at 60 min ([1]; aqueous buffer, 60 °C, pH 3.6 sodium acetate buffer, without cyclodextrin, read-out: solubility without HP-β-CD (value in brackets) (converted)): 37 µM (≈ 13.9 µg/mL)
solubility at 60 min ([1]; aqueous buffer, 60 °C, pH 6.5 sodium phosphate buffer, without cyclodextrin, read-out: solubility without HP-β-CD (value in brackets) (converted)): 160 µM (≈ 60.1 µg/mL)
solubility at 60 min ([1]; aqueous buffer, 60 °C, pH 8.5 sodium borate buffer, without cyclodextrin, read-out: solubility without HP-β-CD (value in brackets) (converted)): 250 µM (≈ 93.9 µg/mL)
solubility at 60 min ([1]; 25 °C, pH 3.6 sodium acetate buffer, with HP-β-CD, read-out: S0 (solubility with HP-β-CD)): 54 ± 30 µM (≈ 20.3 µg/mL)
solubility at 60 min ([1]; 25 °C, pH 6.5 sodium phosphate buffer, with HP-β-CD, read-out: S0 (solubility with HP-β-CD)): 61 ± 20 µM (≈ 22.9 µg/mL)
solubility at 60 min ([1]; 25 °C, pH 8.5 sodium borate buffer, with HP-β-CD, read-out: S0 (solubility with HP-β-CD)): 70 ± 30 µM (≈ 26.3 µg/mL)
solubility at 60 min ([1]; 37 °C, pH 3.6 sodium acetate buffer, with HP-β-CD, read-out: S0 (solubility with HP-β-CD)): 76 ± 35 µM (≈ 28.5 µg/mL)
solubility at 60 min ([1]; 37 °C, pH 6.5 sodium phosphate buffer, with HP-β-CD, read-out: S0 (solubility with HP-β-CD)): 68 ± 33 µM (≈ 25.5 µg/mL)
solubility at 60 min ([1]; 37 °C, pH 8.5 sodium borate buffer, with HP-β-CD, read-out: S0 (solubility with HP-β-CD)): 160 ± 54 µM (≈ 60.1 µg/mL)
solubility at 60 min ([1]; 60 °C, pH 3.6 sodium acetate buffer, with HP-β-CD, read-out: S0 (solubility with HP-β-CD)): 170 ± 65 µM (≈ 63.8 µg/mL)
solubility at 60 min ([1]; 60 °C, pH 6.5 sodium phosphate buffer, with HP-β-CD, read-out: S0 (solubility with HP-β-CD)): 180 ± 60 µM (≈ 67.6 µg/mL)
solubility at 60 min ([1]; 60 °C, pH 8.5 sodium borate buffer, with HP-β-CD, read-out: S0 (solubility with HP-β-CD)): 270 ± 89 µM (≈ 101 µg/mL)
MIC [3]: 1.25 µM
MIC [4]: 2.5 µM
SMILES: COc1ccc(C2CC(=NNC(N)=S)c3c(O)cc(O)cc3O2)cc1O (stereo not drawn) [HTSC, N-[2,3-dihydro-5,7-dihydroxy-2-(3-hydroxy-4-methoxyphenyl)chromen-4-ylidene]thiosemicarbazide]
Non-cytotoxic concentration (IC0) [2]: ≤ 3.9 µg/mL
IC50 ([2]; Homo sapiens, MTT, read-out: IC50 After 48 h): 11.9 µg/mL (≈ 31.7 µM)
